Ki data for 20 compounds are collected here from patent US7045532B2 (Millennium Pharmaceuticals, Inc., priority 1999, dated 2006).

Where only a bound is given, the exact number is not on record here.

The target of assay [1] is T1, ACE-2 (Homo sapiens, UniProt Q9BYF1).
T1 construct: a stop codon inserted after the serine immediately preceding the transmembrane domain; made in house; host or cells: CHO K1 cells (transient transfection, purified from conditioned medium)
The assay is described as follows: ACE-2 Competitive Substrate Assay (ACS Assay). It is filed as biochemical. As to conditions: Ki class; compounds tested in 5% DMSO, 12 concentrations; read-out: Human ACE-2 Activity.

Assay [2] concerns the target T2, Carboxypeptidase A (Bos taurus, UniProt P00730).
T2 sequence (P00730 111-419): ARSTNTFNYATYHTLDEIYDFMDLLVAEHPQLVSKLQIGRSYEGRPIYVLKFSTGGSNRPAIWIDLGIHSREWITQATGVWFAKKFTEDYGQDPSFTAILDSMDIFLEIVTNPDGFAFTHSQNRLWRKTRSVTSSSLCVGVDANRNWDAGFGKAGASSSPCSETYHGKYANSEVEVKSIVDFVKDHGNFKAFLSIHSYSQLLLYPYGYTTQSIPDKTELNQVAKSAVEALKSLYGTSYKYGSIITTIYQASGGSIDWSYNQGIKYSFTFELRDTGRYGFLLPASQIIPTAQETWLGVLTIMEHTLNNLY
The assay is described as follows: Carboxypeptidase A activity assay. Type of assay: biochemical. The following applies: Ki class; compounds tested in 5% DMSO, 12 concentrations. A digest of the protocol:
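Ki obtained by correcting apparent Ki for substrate, Ki=Kiapp/(1+[S]/Km), from 12-concentration series. Enzyme activity read by absorbance at 328 nm with 5% DMSO present, EDTA stop.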

Assay [3] concerns the target T3, ACE (Sigma, A2580) (Sus scrofa, UniProt F1RRW5).
T3 construct: ACE from porcine kidney; purchased Sigma A2580; host or cells: porcine kidney
T3 sequence (F1RRW5 34-1309): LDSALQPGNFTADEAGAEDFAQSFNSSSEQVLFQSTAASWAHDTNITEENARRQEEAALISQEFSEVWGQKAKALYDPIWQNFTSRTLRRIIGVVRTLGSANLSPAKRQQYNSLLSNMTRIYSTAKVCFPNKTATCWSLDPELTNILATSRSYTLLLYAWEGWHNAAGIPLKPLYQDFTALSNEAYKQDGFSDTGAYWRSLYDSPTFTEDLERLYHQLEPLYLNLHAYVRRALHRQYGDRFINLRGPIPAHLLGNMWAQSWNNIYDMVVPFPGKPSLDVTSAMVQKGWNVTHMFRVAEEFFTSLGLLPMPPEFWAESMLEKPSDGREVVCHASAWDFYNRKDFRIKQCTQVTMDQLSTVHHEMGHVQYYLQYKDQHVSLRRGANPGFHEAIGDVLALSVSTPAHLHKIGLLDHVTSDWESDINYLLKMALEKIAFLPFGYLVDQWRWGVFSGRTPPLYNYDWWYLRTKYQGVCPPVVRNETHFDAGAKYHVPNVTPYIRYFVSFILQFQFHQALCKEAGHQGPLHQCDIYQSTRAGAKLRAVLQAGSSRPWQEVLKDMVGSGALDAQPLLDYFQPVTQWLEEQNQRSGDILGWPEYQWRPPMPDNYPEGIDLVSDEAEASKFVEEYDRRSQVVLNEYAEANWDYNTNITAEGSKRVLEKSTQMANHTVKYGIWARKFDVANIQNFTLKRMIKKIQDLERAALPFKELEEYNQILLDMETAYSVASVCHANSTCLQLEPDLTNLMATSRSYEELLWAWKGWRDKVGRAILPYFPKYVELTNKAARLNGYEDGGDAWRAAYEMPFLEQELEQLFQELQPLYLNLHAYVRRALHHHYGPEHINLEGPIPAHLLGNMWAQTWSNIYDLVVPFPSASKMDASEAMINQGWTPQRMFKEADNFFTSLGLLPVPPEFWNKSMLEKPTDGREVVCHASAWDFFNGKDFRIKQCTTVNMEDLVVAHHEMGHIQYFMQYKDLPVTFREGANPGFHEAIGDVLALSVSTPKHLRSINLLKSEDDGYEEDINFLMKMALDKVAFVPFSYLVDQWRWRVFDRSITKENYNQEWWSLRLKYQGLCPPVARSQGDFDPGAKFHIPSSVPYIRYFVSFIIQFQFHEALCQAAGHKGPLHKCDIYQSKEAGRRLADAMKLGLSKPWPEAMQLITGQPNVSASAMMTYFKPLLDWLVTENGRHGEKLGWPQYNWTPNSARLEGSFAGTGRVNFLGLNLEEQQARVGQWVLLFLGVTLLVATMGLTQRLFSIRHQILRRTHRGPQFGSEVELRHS
The assay can be described thus: ACE enzymatic activity assay. Type of assay: biochemical, porcine. As to conditions: Ki class; compounds tested in 5% DMSO, 12 concentrations. A digest of the protocol:
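Fluorogenic substrate cleavage by 1 nM ACE, read at 320/405 nm after EDTA stop at ~30 min. Reactions at 25 °C, pH 7.5, in HEPES/NaCl/Brij-35 buffer; compounds tested at 12 concentrations in 5% DMSO.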

Assay [4] deals with ACE-2 (Rattus norvegicus, UniProt Q5EGZ1). The assay can be described thus: ACE-2 Competitive Substrate Assay, rat ACE-2. It is filed as biochemical. As to conditions: Ki class; compounds tested in 5% DMSO, 12 concentrations.
ACE-2 (Rattus norvegicus, UniProt Q5EGZ1), sequence (Q5EGZ1 18-805): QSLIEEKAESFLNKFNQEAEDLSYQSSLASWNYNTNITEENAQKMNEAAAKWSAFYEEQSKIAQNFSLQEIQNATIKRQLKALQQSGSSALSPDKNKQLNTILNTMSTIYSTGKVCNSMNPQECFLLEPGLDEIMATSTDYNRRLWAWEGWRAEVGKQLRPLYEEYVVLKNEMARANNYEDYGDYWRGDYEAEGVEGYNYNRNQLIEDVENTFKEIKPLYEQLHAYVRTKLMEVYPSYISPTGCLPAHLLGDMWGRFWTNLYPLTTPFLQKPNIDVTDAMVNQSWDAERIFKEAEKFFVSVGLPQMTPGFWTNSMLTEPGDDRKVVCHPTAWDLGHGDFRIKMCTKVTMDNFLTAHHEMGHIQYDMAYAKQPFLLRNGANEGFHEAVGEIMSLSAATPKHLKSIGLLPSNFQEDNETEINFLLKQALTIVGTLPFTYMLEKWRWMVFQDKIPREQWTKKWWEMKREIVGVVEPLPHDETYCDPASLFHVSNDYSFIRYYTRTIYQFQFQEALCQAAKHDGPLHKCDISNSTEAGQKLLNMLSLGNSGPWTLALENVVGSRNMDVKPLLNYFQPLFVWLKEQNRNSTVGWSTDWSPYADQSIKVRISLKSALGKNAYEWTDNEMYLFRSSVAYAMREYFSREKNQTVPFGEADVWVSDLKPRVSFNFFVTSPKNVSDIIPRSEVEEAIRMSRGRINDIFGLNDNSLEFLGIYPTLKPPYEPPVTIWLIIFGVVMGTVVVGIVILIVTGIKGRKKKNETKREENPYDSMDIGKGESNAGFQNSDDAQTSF
Procedure: ACE-2 enzymatic activity was assayed in microtitre plates by the following procedure. The ACE-2 assay buffer used contained 50 mM MES (Boehringer-Mannheim), 300 mM NaCl (Sigma) and 0.01% Brij-35 (Pierce Chemical Co.) at pH 6.5.
Reactions were mixed and incubated at 25° C.
The activity of the test compounds was investigated using the procedure outlined above. The compounds were tested in 5% DMSO. Enzyme activity was measured at 12 compound concentrations.

T1 sequence (Q9BYF1 18-740 limits assumed): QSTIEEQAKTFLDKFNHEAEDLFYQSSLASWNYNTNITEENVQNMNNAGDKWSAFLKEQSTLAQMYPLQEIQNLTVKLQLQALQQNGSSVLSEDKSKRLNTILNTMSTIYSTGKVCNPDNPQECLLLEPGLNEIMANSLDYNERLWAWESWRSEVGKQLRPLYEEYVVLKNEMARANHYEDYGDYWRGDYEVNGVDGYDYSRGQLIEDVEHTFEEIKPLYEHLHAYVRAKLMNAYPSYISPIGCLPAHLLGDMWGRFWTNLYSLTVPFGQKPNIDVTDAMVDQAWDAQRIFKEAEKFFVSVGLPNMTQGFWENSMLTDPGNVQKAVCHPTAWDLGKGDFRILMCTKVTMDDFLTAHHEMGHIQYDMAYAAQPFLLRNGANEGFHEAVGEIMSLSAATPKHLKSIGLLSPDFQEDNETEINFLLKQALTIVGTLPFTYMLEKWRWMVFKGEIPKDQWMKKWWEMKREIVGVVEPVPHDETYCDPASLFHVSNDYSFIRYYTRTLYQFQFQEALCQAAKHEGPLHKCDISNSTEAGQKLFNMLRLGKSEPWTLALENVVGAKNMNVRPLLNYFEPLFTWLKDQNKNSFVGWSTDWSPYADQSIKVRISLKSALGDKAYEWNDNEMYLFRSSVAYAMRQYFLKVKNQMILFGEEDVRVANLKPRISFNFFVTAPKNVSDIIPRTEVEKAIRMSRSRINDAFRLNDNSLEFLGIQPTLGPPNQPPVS

In the case of `CC(C)(C)C[C@H](N[C@H](CCc1ccccc1)C(=O)O)C(=O)O` [DD, 2-(1-Carboxy-3-phenyl-propylamino)-4,4-dimethylpentanoic acid], the Ki is over 0.5 µM in assay [1], over 50 µM in assay [2], over 50 µM in assay [3] and over 0.5 µM in assay [4].
Turning to `O=C(O)[C@H](CC1CC1)N[C@H](CCc1ccccc1)C(=O)O` [DE, 2-(1-Carboxy-2-cyclopropyl-ethylamino)-4-phenyl-butync acid], the Ki is over 0.5 µM in assay [1], over 50 µM in assay [2], over 50 µM in assay [3] and over 0.5 µM in assay [4].
As for `COC(=O)[C@H](CC(C)C)NCC(=O)c1ccc(-c2ccccc2)cc1` [DH, 2-(2-Biphenyl-4-yl-2-oxo-ethylamino)-4-methyl-pentanoic acid methylester], the Ki in assay [1] was over 0.5 µM; in assay [2], over 50 µM; in assay [3], over 50 µM; in assay [4], over 0.5 µM.
For `COC(=O)[C@H](CC(C)C)NCC(=O)[C@H](Cc1ccccc1)NC(=O)OCc1ccccc1` [DI, 2-(3-Benzyloxycarbonylamino-2-oxo-4-phenyl-butylamino)-4-methyl-pentanoic acid methylester], the Ki was over 0.5 µM in assay [1], 10 to 50 µM in assay [2], over 50 µM in assay [3] and over 0.5 µM in assay [4].
For `O=C(O)C(CCc1ccccc1)N[C@@H](Cc1c[nH]cn1)C(=O)O` (some centres unmarked) [DP, 2-[1-Carboxy-2-(1H-imidazol-4-yl)-ethylamino]4-phenyl-butync acid], the Ki in assay [1] is over 0.5 µM; in assay [2] it was over 50 µM; in assay [3], 10 to 50 µM; in assay [4], 0.1 to 0.5 µM.
Taken in the same sequence, the figures for `CC(C)CC(CS)C(=O)O` (centres unmarked) [DQ, 2-Mercaptomethyl-4-methyl-pentanoic acid] were over 0.5 µM, over 50 µM, over 50 µM and 0.1 to 0.5 µM.
Taken in the same sequence, the figures for `O=C(O)[C@H](CC#Cc1ccccc1)N[C@@H](CCc1ccccc1)C(=O)O` [DS, 2-(1-Carboxy-3-phenyl-propylamino)-5-phenyl-pent-4-ynoic acid] were over 0.5 µM, 10 to 50 µM, over 50 µM and 0.1 to 0.5 µM.
Taken in the same sequence, the figures for `CC(C)CC(N[C@@H](Cc1cncn1COCc1ccccc1)C(=O)O)C(=O)O` (some centres unmarked) [DX, 2-[2-(3-Benzyloxymethyl-3H-imidazol-4-yl)-1-carboxy-ethylamino]-4-methyl-pentanoic acid] were 0.1 to 0.5 µM, over 50 µM, over 50 µM and 0.1 to 0.5 µM.
Take `CC(C)C[C@H](N[C@H](CCc1ccccc1)C(=O)O)C(=O)O` [E, 2-(1-Carboxy-3-phenyl-propylamino)-4-methyl-pentanoic acid]: the Ki in assay [1] is over 0.5 µM; in assay [2] it was over 50 µM; in assay [3] it was over 50 µM; in assay [4], over 0.5 µM.
As to `O=C(O)[C@H](CC#Cc1ccccn1)N[C@@H](CCc1ccccc1)C(=O)O` [EA, 2-(1-Carboxy-3-phenyl-propylamino)-5-pyridin-2-yl-pent-4-ynoic acid], the Ki in assay [1] is over 0.5 µM; in assay [2], under 10 µM; in assay [3], over 50 µM; in assay [4], 0.1 to 0.5 µM.
For `O=C(O)[C@H](CC#Cc1ccccn1)N[C@H](CCc1ccccc1)C(=O)O` [EB, 2-(1-Carboxy-3-phenyl-propylamino)-5-pyridin-2-yl-pent-4-ynoic acid] the same measures were over 0.5 µM, 10 to 50 µM, over 50 µM and over 0.5 µM.
Consider `CC(C)CC(N[C@@H](Cc1cn(Cc2ccc(Cl)cc2)cn1)C(=O)O)C(=O)O` (some centres unmarked) [EC, 2-{1-Carboxy-2-[1-(4-chloro-benzyl}-1H-imidazol-4-yl]-ethylamino)4-methyl-pentanoic acid], for which the Ki in assay [1] is over 0.5 µM; in assay [2] it was under 10 µM; in assay [3] it was 10 to 50 µM; in assay [4] it was over 0.5 µM.
Turning to `CC(C)CC(N[C@H](CC(=O)O)Cc1ccco1)C(=O)O` (some centres unmarked) [EH, 2-(1-Carboxymethyl-2-furan-2-yl-ethylamino)-4-methyl-pentanoic acid], the Ki in assay [1] is over 0.5 µM; in assay [2], over 50 µM; in assay [3], over 50 µM; in assay [4], over 0.5 µM.
Turning to `CC(C)CC(N[C@@H](Cc1cn(Cc2ccc(C(F)(F)F)cc2)cn1)C(=O)O)C(=O)O` (some centres unmarked) [EL, 2-{1-Carboxy-2-[1-(4-trifluoromethyl-benzyl)-1H-imidazol-4-yl}-ethylamino]4-methyl-pentanoic acid], the Ki was over 0.5 µM in assay [1], 10 to 50 µM in assay [2], over 50 µM in assay [3] and 0.1 to 0.5 µM in assay [4].
On to `COc1ccc(Cn2cnc(C[C@H](NC(CC(C)C)C(=O)O)C(=O)O)c2)cc1` (some centres unmarked) [EM, 2-[1-Carboxy-2-[1-(4-methoxy-benzyl)-1H-imidazol-4-yl]-ethylamino)4-methyl-pentanoic acid], for which the Ki in assay [1] was over 0.5 µM; in assay [2] it was over 50 µM; in assay [3] it was over 50 µM; in assay [4] it was over 0.5 µM.
On to `CC(C)CC(N[C@@H](Cc1c[nH]cn1)C(=O)NCC(=O)O)C(=O)O` (some centres unmarked) [FD, 2-[1-(Carboxymethyl-carbamoyl)-2-(1H-imidazol-4-yl)-ethylamino]4-methyl-pentanoic acid], for which the Ki is over 0.5 µM in assay [1], over 50 µM in assay [2], under 10 µM in assay [3] and over 0.5 µM in assay [4].
As for `CC(C)CC(N[C@@H](CN(C)c1ccccc1)C(=O)O)C(=O)O` (some centres unmarked) [FS, 2-[1-Carboxy-2-(methyl-phenyl-amino)-ethylamino]-4-methyl-pentanoic acid], the Ki in assay [1] is over 0.5 µM; in assay [2] it was 10 to 50 µM; in assay [3] it was over 50 µM; in assay [4] it was under 0.1 µM.
For `CC(C)CC(N[C@H](CN(C)c1ccccc1)C(=O)O)C(=O)O` (some centres unmarked) [FT, 2-[1-Carboxy-2-(methyl-phenyl-amino)-ethylamino]-4-methyl-pentanoic acid] the same measures were over 0.5 µM, over 50 µM, over 50 µM and over 0.5 µM.
For `CC(C)CC(N[C@@H](Cc1cncn1Cc1ccc(C(F)(F)F)cc1)C(=O)O)C(=O)O` (some centres unmarked) [GI, 2-[1-Carboxy-2-[3-(4-trifluoromethyl-benzyl)-imidazol-4-yl]-ethylamino]-4-methyl-pentanoic acid] the same measures were under 0.1 µM, 10 to 50 µM, over 50 µM and under 0.1 µM.
For `CC(C)CC(N[C@@H](Cc1cncn1Cc1ccc(C(F)(F)F)cc1)C(=O)O)C(=O)O` (some centres unmarked) [GJ, 2-[1-Carboxy-2-[3-(4-trifluoromethyl-benzyl)-3H-imidazol-4-yl]-ethylamino]4-methyl-pentanoic acid] the same measures were over 0.5 µM, 10 to 50 µM, 10 to 50 µM and over 0.5 µM.
